Source: US20060233887A1, “Bioactive material for use in stimulating vascularization” (The North West London Hospitals N H S Trust, priority 2003, published 2006)

Tested on: human endothelial cells
Experiment: In vitro angiogenesis assay (Angiogenesis Assay Kit, CD31 staining, AngioSys image analysis)
Format: cell-based
Conditions: 11 days
From the text: To evaluate the angiogenic growth factors secreted from fibroblasts in response to 45S5 Bioglass®, a commercial angiogenesis assay (Angiogenesis Assay Kit; TCS CellWorks Ltd) was used (Donovan D et al. Comparison of three in vitro human ‘angiogenesis’ assays with capillaries formed in vivo. Angiogenesis. 2001;4:113-121; Drinkwater S L et al Effect of venous ulcer exudates on angiogenesis in vitro. Br J Surg. 2002;89:709-713; Sengupta S et al. Thymidine phosphorylase induces angiogenesis in vivo and in vitro: an evaluation of possible mechanisms. Br J Pharmacol. 2003;139:219-231). The assay was performed according to the manufacturer's instructions.
In brief, on the day of delivery from the supplier, the medium in the culture plate was replaced with optimised medium (TCS CellWorks Ltd; supplied with the kit) alone (OM); OM:conditioned medium (medium collected from human colonic fibroblasts (CCD-18co) cultured on 0 g/cm^2 or 0.3125 mg/cm^2 45S5 Bioglass® for 72 hours) at 1:1 v/v; OM containing 2 ng/ml VEGF (positive control); or OM containing 20 μM suramin (negative control). Each treatment condition was repeated in quadruplicate. The culture medium was removed on days 4, 7 and 9 of the experiment and replaced with fresh pre-equilibrated (37° C. and 5% CO2) optimised medium plus each treatment. After 11 days, the endothelial cells were stained for CD31 (TCS CellWorks Ltd) using indirect immunocytochemistry as described in the manufacturer's instructions and allowed to air-dry. Each well was divided into quadrants on the underside of the plate. Photomicrographs of each quadrant were recorded with a Nikon Eclipse TE2000-S inverted photomicroscope fitted with a digital camera using a 4× objective lens. Image analysis software (AngioSys, Foster Findlay Associates, Newcastle Upon Tyne, UK) was used for automated scoring of the assay, providing quantitative measurements of endothelial tubule development (total vessel number, total tubule length and number of junctions), as previously described (Drinkwater S L et al Effect of venous ulcer exudates on angiogenesis in vitro. Br J Surg. 2002;89:709-713; Sengupta S et al. Thymidine phosphorylase induces angiogenesis in vivo and in vitro: an evaluation of possible mechanisms. Br J Pharmacol. 2003; 139:219-231).

[1] = 20 μM suramin, vs control endothelial cells

Compound: VEGF
- number of anastomosed endothelial tubules (micrographs) (2 ng/ml VEGF, vs optimised medium alone): visible increase
- endothelial tubule development (tubules, tubule length, junctions) (2 ng/ml VEGF, positive control): Significant increases

Compound: Cc1ccc(C(=O)Nc2ccc(S(=O)(=O)O)c3cc(S(=O)(=O)O)cc(S(=O)(=O)O)c23)cc1NC(=O)c1cccc(NC(=O)Nc2cccc(C(=O)Nc3cc(C(=O)Nc4ccc(S(=O)(=O)O)c5cc(S(=O)(=O)O)cc(S(=O)(=O)O)c45)ccc3C)c2)c1 [suramin]
- number of endothelial tubules [1]: reduced
- number of tubule junctions [1]: reduced
- total tubule length [1]: reduced
